In patent US20200237901A1 (priority 2016, published 2020):
Several values for one entry are separate records, joined by “and”; a condition that tells them apart may be missing. Equal values may be shown once.

What was measured:
[1] = test system: Enterovirus 71 Hn2 strain (EV71-Hn2); format: cell-based
[2] = test system: murine hepatitis coronavirus A59 strain (MHV-A59); format: cell-based
[3] = test system: Ectromelia Virus Moscow strain (ECTV-MOS strain); parameters: species or system Balb/c mice; conditions: mouse, in vivo, ip
[4] = female, Balb/c, mouse, in vivo, ip

Structure (SMILES): Nc1ccn(C[C@@H](CO)OCP(=O)(O)O)c(=O)n1 [Cidofovir]
- effect on the titers of enterovirus (EV71) [1]: no effects
- effect on the titers of coronavirus (MHV) [2]: no effects
- Case-Fatality Rate (%) [3]: 6.67% and 13.33%
- Death Number [3]: 1 and 2
- Survival Number [3]: 14 and 13
- Survival Rate (%) [3]: 86.67% and 93.33%
- Case-Fatality Rate (%) [4]: 0%
- Death Number [4]: 0
- Survival Number [4]: 15
- Survival Rate (%) [4]: 100%
